Patent US10670605B2, “Cysteine reactive probes and uses thereof” (The Scripps Research Institute, priority 2015, dated 2020)

Legend:
Test in all cases: Competitive isoTOP-ABPP in situ (fragment-treated cells)
Type in all cases: cell-based
Conditions in all cases: 200 μM, insitu
[1] = biological target: T1, cysteines in MDA-MB-231 and Ramos cells (Homo sapiens, UniProt P42166)
T1 sequence (P42166 1-694): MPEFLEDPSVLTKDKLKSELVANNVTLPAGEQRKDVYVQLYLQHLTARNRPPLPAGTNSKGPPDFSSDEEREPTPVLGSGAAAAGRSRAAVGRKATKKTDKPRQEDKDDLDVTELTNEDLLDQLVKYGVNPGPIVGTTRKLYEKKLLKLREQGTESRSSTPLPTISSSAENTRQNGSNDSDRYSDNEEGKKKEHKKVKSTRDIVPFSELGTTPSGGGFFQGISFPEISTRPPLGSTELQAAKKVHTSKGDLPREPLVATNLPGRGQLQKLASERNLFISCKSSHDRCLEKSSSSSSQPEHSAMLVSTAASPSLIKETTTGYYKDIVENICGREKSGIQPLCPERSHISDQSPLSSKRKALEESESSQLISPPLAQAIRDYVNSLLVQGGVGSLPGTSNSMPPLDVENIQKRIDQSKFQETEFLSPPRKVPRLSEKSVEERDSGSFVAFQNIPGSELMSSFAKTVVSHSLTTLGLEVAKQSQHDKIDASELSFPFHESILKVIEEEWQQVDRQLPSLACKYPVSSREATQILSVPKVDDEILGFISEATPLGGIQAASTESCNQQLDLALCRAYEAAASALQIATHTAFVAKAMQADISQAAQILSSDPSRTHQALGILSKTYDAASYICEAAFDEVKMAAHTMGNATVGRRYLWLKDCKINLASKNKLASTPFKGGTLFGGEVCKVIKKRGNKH

[2] = biological target: T2, cysteines in MDA-MB-231 and Ramos cells (Homo sapiens, UniProt Q96CM8)
T2 sequence (Q96CM8 42-615): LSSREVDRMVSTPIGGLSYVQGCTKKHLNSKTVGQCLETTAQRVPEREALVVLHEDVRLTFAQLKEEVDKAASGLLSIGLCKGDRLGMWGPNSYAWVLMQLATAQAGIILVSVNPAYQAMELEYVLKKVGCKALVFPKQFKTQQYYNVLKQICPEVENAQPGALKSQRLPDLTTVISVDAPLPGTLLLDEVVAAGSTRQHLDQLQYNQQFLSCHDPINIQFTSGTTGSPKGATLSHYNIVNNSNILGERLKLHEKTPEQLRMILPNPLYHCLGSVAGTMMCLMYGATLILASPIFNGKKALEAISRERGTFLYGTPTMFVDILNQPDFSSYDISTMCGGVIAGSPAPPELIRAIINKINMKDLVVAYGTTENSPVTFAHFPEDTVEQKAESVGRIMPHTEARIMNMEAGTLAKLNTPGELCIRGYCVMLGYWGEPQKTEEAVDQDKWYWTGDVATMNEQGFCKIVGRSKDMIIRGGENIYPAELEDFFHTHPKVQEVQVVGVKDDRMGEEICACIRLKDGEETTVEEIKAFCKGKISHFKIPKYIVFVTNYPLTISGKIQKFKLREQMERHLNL

[3] = biological target: cysteines in MDA-MB-231 and Ramos cells (Homo sapiens, UniProt Q9ULV4)
cysteines in MDA-MB-231 and Ramos cells (Homo sapiens, UniProt Q9ULV4), sequence (Q9ULV4 whole entry): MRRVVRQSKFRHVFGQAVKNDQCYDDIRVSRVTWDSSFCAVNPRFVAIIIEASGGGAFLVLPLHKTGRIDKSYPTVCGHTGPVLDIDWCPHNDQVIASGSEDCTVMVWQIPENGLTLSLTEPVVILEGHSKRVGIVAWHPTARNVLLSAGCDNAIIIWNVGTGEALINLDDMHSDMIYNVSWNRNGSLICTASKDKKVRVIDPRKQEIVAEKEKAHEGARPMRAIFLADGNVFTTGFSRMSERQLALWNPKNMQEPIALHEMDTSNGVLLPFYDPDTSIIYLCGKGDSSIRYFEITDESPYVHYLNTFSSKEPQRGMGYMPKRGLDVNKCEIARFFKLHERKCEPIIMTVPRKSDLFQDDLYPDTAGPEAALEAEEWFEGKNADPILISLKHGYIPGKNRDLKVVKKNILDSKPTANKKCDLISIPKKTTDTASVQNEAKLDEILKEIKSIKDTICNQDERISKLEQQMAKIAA

[4] = biological target: cysteines in MDA-MB-231 and Ramos cells (Homo sapiens, UniProt P61978)
[5] = biological target: T3, cysteines in MDA-MB-231 and Ramos cells (Homo sapiens, UniProt O95571)
T3 sequence (O95571 8-254): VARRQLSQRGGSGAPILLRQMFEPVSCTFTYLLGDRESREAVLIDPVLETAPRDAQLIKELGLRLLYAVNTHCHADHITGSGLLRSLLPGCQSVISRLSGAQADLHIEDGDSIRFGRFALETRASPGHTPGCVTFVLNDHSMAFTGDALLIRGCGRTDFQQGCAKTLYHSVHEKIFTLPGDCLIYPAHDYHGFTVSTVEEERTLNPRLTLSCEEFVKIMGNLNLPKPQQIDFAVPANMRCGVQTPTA

[6] = biological target: cysteines in MDA-MB-231 and Ramos cells (Homo sapiens, UniProt P12268)
[7] = biological target: T4, cysteines in MDA-MB-231 and Ramos cells (Homo sapiens, UniProt P23919)
T4 sequence (P23919 1-212): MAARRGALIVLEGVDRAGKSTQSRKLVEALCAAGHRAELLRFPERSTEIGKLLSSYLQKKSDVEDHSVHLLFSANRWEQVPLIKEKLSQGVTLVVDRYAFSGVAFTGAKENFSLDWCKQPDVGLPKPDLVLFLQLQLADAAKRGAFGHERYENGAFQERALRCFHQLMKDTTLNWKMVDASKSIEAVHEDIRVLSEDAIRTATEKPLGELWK

[8] = biological target: T5, cysteines in MDA-MB-231 and Ramos cells (Homo sapiens, UniProt Q15233)
T5 sequence (Q15233 1-471): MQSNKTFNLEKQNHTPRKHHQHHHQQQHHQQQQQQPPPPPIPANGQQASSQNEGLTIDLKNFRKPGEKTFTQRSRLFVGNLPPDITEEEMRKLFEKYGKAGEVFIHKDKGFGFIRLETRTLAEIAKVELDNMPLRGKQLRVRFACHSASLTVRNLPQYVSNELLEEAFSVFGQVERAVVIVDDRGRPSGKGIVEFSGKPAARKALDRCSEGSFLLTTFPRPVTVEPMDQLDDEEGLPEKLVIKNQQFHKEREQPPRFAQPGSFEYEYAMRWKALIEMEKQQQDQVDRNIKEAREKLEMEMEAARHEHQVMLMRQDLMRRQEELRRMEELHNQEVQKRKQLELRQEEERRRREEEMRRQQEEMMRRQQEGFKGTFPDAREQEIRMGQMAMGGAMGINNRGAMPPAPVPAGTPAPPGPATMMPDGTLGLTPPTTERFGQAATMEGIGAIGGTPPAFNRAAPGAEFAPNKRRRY

SMILES	isoTOP-ABPP ratio P42166_C341 [1]; 231	isoTOP-ABPP ratio P42166_C561 [1]; 231	isoTOP-ABPP ratio Q96CM8_C64 [2]; 231	isoTOP-ABPP ratio Q9ULV4_C420 [3]; 231	isoTOP-ABPP ratio P23919_C163 [7]; 231	isoTOP-ABPP ratio Q15233_C145 [8]; 231	isoTOP-ABPP ratio P61978_C132 [4]; 231	isoTOP-ABPP ratio O95571_C170 [5]; 231	isoTOP-ABPP ratio P12268_C140 [6]; 231	isoTOP-ABPP ratio P12268_C331 [6]; 231	further results
COc1ccc2c(c1)CCCN2C(=O)CCl [compound 2]	–	–	–	–	–	–	–	–	–	–	isoTOP-ABPP reactivity P42166_C341 TMPO [1]; 231: 10.4; isoTOP-ABPP reactivity P42166_C561 TMPO [1]; 231: 8.3; isoTOP-ABPP reactivity P42166_C629 TMPO [1]; 231: 4.4; isoTOP-ABPP reactivity Q96CM8_C64 ACSF2 [2]; 231: 20.0; isoTOP-ABPP reactivity Q9ULV4_C420 CORO1C [3]; 231: 3.0; isoTOP-ABPP reactivity P61978_C132 HNRNPK [4]; 231: 5.0; isoTOP-ABPP reactivity O95571_C170 ETHE1 [5]; 231: 3.8; isoTOP-ABPP reactivity P12268_C140 IMPDH2 [6]; 231: 1.3; isoTOP-ABPP reactivity P12268_C331 IMPDH2 [6]; 231: 12.1
CC(C)CCOCCNC(=O)CCl [compound 27]	0.6	0.8	1.8	0.8	0.2	1.2	0.9	1.1	0.5	0.7	–
O=C(CCl)NC(=O)NC12CC3CC(CC(C3)C1)C2 [compound 12]	–	16.1	17.9	2.2	–	2.4	7.5	6.3	1.2	–	isoTOP-ABPP ratio, cysteine P23919_C117 [7]; 231: 0.2
O=C(CCl)NC12CC3CC(CC(C3)C1)C2 [compound 21]	1.7	1.4	2.0	1.3	–	–	1.4	1.7	0.6	0.8	isoTOP-ABPP ratio, cysteine P42166_C518 [1]; 231: 1.4; isoTOP-ABPP ratio, cysteine P42166_C629 [1]; 231: 1.6; isoTOP-ABPP ratio, cysteine P23919_C117 [7]; 231: 0.9
O=C(CCl)N1CCN(S(=O)(=O)c2ccccc2F)CC1 [compound 10]	–	17.8	20.0	3.4	–	–	5.6	9.0	0.7	–	isoTOP-ABPP ratio, cysteine P42166_C518 [1]; 231: 4.2; isoTOP-ABPP ratio, cysteine P42166_C629 [1]; 231: 2.5; isoTOP-ABPP ratio, cysteine P42166_C684 [1]; 231: 5.2; isoTOP-ABPP ratio, cysteine P23919_C117 [7]; 231: 0.4; isoTOP-ABPP ratio Q15233_C145 ([8]; ramos): 2.2; isoTOP-ABPP ratio P61978_C132 ([4]; ramos): 1.6; isoTOP-ABPP ratio P12268_C140 ([6]; ramos): 0.9; isoTOP-ABPP ratio P12268_C331 ([6]; ramos): 2.1
COc1ccccc1OCCNC(=O)CCl [compound 28]	–	1.1	–	0.7	0.4	1.1	1.0	–	0.6	0.8	–
C=CC(=O)N(Cc1cccnc1)c1cc(C(F)(F)F)cc(C(F)(F)F)c1 [compound 31]	–	1.3	0.8	0.8	–	0.7	0.9	–	0.6	1.0	isoTOP-ABPP ratio P42166_C341 ([1]; ramos): 2.0; isoTOP-ABPP ratio P42166_C561 ([1]; ramos): 2.5; isoTOP-ABPP ratio P42166_C684 ([1]; ramos): 3.3; isoTOP-ABPP ratio Q9ULV4_C420 ([3]; ramos): 1.1; isoTOP-ABPP ratio P23919_C163 ([7]; ramos): 1.0; isoTOP-ABPP ratio Q15233_C145 ([8]; ramos): 0.8; isoTOP-ABPP ratio P61978_C132 ([4]; ramos): 1.1; isoTOP-ABPP ratio P12268_C140 ([6]; ramos): 1.0; isoTOP-ABPP ratio P12268_C331 ([6]; ramos): 1.1
O=C(CCl)N1CCC(Cc2ccccc2)CC1 [compound 9]	–	–	–	–	–	–	–	–	–	–	isoTOP-ABPP reactivity P42166_C561 TMPO [1]; 231: 3.7; isoTOP-ABPP reactivity Q9ULV4_C420 CORO1C [3]; 231: 2.0; isoTOP-ABPP reactivity P23919_C117 DTYMK [7]; 231: 7.3; isoTOP-ABPP reactivity Q15233_C145 NONO [8]; 231: 1.4; isoTOP-ABPP reactivity P61978_C132 HNRNPK [4]; 231: 1.4; isoTOP-ABPP reactivity O95571_C170 ETHE1 [5]; 231: 2.0; isoTOP-ABPP reactivity P12268_C140 IMPDH2 [6]; 231: 1.2; isoTOP-ABPP reactivity P12268_C331 IMPDH2 [6]; 231: 1.3
O=C(CCl)N1CCN(CC(=O)N2CCOCC2)CC1 [compound 29]	–	–	–	–	–	–	–	–	–	–	isoTOP-ABPP ratio P42166_C561 ([1]; ramos): 0.9; isoTOP-ABPP ratio P42166_C629 ([1]; ramos): 1.6; isoTOP-ABPP ratio Q96CM8_C64 ([2]; ramos): 2.3; isoTOP-ABPP ratio P23919_C117 ([7]; ramos): 1.6; isoTOP-ABPP ratio P61978_C132 ([4]; ramos): 1.2; isoTOP-ABPP ratio O95571_C170 ([5]; ramos): 1.5; isoTOP-ABPP ratio P12268_C140 ([6]; ramos): 1.6; isoTOP-ABPP ratio P12268_C331 ([6]; ramos): 1.3

Continued, in another order:

isoTOP-ABPP ratio P42166_C341 [1]; 231	isoTOP-ABPP ratio P42166_C561 [1]; 231	isoTOP-ABPP ratio Q96CM8_C64 [2]; 231	isoTOP-ABPP ratio Q9ULV4_C420 [3]; 231	isoTOP-ABPP ratio P23919_C163 [7]; 231	isoTOP-ABPP ratio Q15233_C145 [8]; 231	isoTOP-ABPP ratio P61978_C132 [4]; 231	isoTOP-ABPP ratio O95571_C170 [5]; 231	isoTOP-ABPP ratio P12268_C140 [6]; 231	isoTOP-ABPP ratio P12268_C331 [6]; 231	SMILES	further results
0.5	0.7	0.8	0.8	0.2	1.1	0.9	1.1	0.7	0.8	Cc1ccc(C=C(C#N)C(=O)NCCN2CCOCC2)cc1 [compound 41]	–
–	20.0	20.0	3.2	–	3.7	9.3	3.1	1.9	4.1	CC1CCc2ccccc2N1C(=O)CCl (centres unmarked) [compound 45]	isoTOP-ABPP ratio P42166_C684 [1]; 231: 6.8
1.2	1.3	–	1.1	–	1.6	1.2	–	1.0	–	O=C(CCl)Nc1cccc2ncccc12 [compound 51]	isoTOP-ABPP ratio P42166_C684 [1]; 231: 1.2
–	20.0	1.1	1.4	5.7	0.9	1.0	–	1.2	1.3	C=CC(=O)Nc1cc(F)c(N2CCN(C(=O)OC(C)(C)C)CC2)c(F)c1 [compound 38]	isoTOP-ABPP ratio P42166_C518 [1]; 231: 2.2; isoTOP-ABPP ratio P42166_C684 [1]; 231: 3.0; isoTOP-ABPP ratio P23919_C117 [7]; 231: 4.4
